According to patent US12297349B2, “Transparent resin composition and transparent resin molded article” (Sony Group Corporation, priority 2016, dated 2025):

Experiment: Dissolved amount (solubility) in pure water
Conditions: stirring for 30 minutes, filtering with 0.5 μm filter, insoluble matter measured
Experimental: The content of the water-insoluble organic sulfonic acid and/or the metal salt thereof is 0.01 to 3.0 pts·mass to 100 pts·mass of the aromatic polycarbonate resin. […] The dissolved amount per 100 g of pure water can be calculated by mixing 3 g of sample with 100 g of pure water, stirring for 30 minutes, and then filtering it with 0.5 μm filter to measure the insoluble matter.

For Cc1ccc(S(=O)(=O)[O-])cc1.[Na+] [b-3, sodium paratoluenesulfonic acid], the “A dissolved amount (solubility)” value was 24.0 g/100 g of pure water.

For O=S(=O)([O-])C(F)(F)C(F)(F)C(F)(F)C(F)(F)F.[K+] [b-2, potassium perfluorobutanesulfonate], the “A dissolved amount (solubility)” value was 4.6 g/100 g of pure water.
